Experiments:
Assay in all cases: Greenhouse early post-emergence weed control trial
Format in all cases: in vivo
Lolium rigidum (LOLRI) = conditions: 480 h, visual weed control 20 DAA, scale 0-100, early post-emergence BBCH 10-11, g ai/ha: diflufenican 50, pyroxasulfone 25, metribuzin 50, combination 50 + 25 + 50, read-out: % Efficacy against various weeds, LOLRI
Procedure: (§1) The following data are the results of a greenhouse investigation in which the herbicide combination according to the present invention was tested against various monocotyledonous and dicotyledonous weeds after an early-post emergence application (BBCH 10-11).
(§2) For this early post-emergent trial seeds of the above mentioned species were sown in 7 cm jiffy pots containing standard soil (14.7% sand, 19.9% clay, 65.4% silt and 1.8% organic matter) covered with 0,5 cm depth of sandy soil and lightly irrigated from above. The pots were placed in a glasshouse (with conditions of 16 hour day and 8 hour night, 21° C. day and 12° C. night and 60% relative humidity) and irrigated from above to allow the seeds to germinate and grow. Once they had reached the required growth stage BBCH 10-11 the propagated plants were treated with the herbicides. The herbicides were applied in a spray volume of 300 l water/ha using a flat fan nozzle XR 8001 at a pressure of 1.8 bar. After the application and air drying the pots were placed back into the glasshouse and allowed to grow on. The pots were irrigated via flood irrigation as required for good plant growth.
(§3) Visual percent of weed control (4 replicates) was rated 20 days after herbicide applications (DAA) on a scale of 0-100. A rating of 0 is defined as no control and 100 as complete control.
(§4) According to Colby synergistic effects of herbicidal active ingredients are indicated if the measured efficacy is higher than the expected one calculated according to his formula for 3-way mixtures: E=(A+B+C)−(A×B+A×C+B×C)/100+(A×B×C)/10000

[1] = test system: Pharbitis purpurea (PHBPU); conditions: Ipomoea purpurea, 480 h; visual weed control 20 DAA, scale 0-100, early post-emergence BBCH 10-11; g ai/ha: diflufenican 50, pyroxasulfone 25, metribuzin 50, combination 50 + 25 + 50; read-out: % Efficacy against various weeds, PHBPU
Procedure: as §1, §2, §3, §4

[2] = test system: Matricaria inodora (MATIN); conditions: Tripleurospermum inodorum, 480 h; visual weed control 20 DAA, scale 0-100, early post-emergence BBCH 10-11; g ai/ha: diflufenican 50, pyroxasulfone 25, metribuzin 50, combination 50 + 25 + 50; read-out: % Efficacy against various weeds, MATIN
Procedure: as §1, §2, §3, §4

[3] = test system: Polygonum convolvulus (POLCO); conditions: Fallopia convolvulus, 480 h; visual weed control 20 DAA, scale 0-100, early post-emergence BBCH 10-11; g ai/ha: diflufenican 50, pyroxasulfone 25, metribuzin 50, combination 50 + 25 + 50; read-out: % Efficacy against various weeds, POLCO
Procedure: as §1, §2, §3, §4

Lamium purpureum (LAMPU) = conditions: 480 h, visual weed control 20 DAA, scale 0-100, early post-emergence BBCH 10-11, g ai/ha: diflufenican 50, pyroxasulfone 25, metribuzin 50, combination 50 + 25 + 50, read-out: % Efficacy against various weeds, LAMPU
Procedure: as §1, §2, §3, §4

Veronica persica (VERPE) = conditions: 480 h, visual weed control 20 DAA, scale 0-100, early post-emergence BBCH 10-11, g ai/ha: diflufenican 50, pyroxasulfone 25, metribuzin 50, combination 50 + 25 + 50, read-out: % Efficacy against various weeds, VERPE
Procedure: as §1, §2, §3, §4

Q: Which Emax (Lolium rigidum (LOLRI)) does the source give for `CSc1nnc(C(C)(C)C)c(=O)n1N` [Metribuzin, metribuzin] here?
A: 6%

Q: What about the Emax [1] of the same molecule?
A: 5%

Q: What about the Emax [2] of the same molecule?
A: 59%

Q: What about the Emax [3] of the same molecule?
A: 1%

Q: And the Emax (Lamium purpureum (LAMPU))?
A: 95%

Q: And the Emax (Veronica persica (VERPE))?
A: 70%

Q: For `O=C(Nc1ccc(F)cc1F)c1cccnc1Oc1cccc(C(F)(F)F)c1` [Diflufenican, diflufenican], which Emax (Lolium rigidum (LOLRI)) is on record?
A: 2%

Q: What about the Emax [1] of the same molecule?
A: 18%

Q: And the Emax [2]?
A: 1%

Q: What about the Emax [3] of the same molecule?
A: 13%

Q: And the Emax (Lamium purpureum (LAMPU))?
A: 10%

Q: What about the Emax (Veronica persica (VERPE)) of the same molecule?
A: 18%

Q: For `Cn1nc(C(F)(F)F)c(CS(=O)(=O)C2=NOC(C)(C)C2)c1OC(F)F` [Pyroxasulfon, pyroxasulfone], which Emax (Lolium rigidum (LOLRI)) is on record?
A: 29%

Q: What about the Emax [1] of the same molecule?
A: 10%

Q: And the Emax [2]?
A: 5%

Q: And the Emax [3]?
A: 0%

Q: What about the Emax (Lamium purpureum (LAMPU)) of the same molecule?
A: 5%

Q: What about the Emax (Veronica persica (VERPE)) of the same molecule?
A: 5%
